The values below come from patent US20240092802A1, “MU-OPIOID RECEPTOR AGONISTS AND USES THEREFOR” (Kures, Inc., priority 2020, published 2024).

This assay deals with Human MOR (Homo sapiens (Human), UniProt P35372). Briefly: BRET G protein activation assay, human MOR in transfected HEK-293T cells. The format is cell-based. The following applies: BRET G protein activation, HEK-293T; mean ± SEM; read-out: EC50 Human MOR. The text has this:
Transfection. Human or mouse MOR cDNA was transfected alongside GαoB with RLuc8 inserted at position 91 (GαoB-RLuc8), Gβ1 (β1), and Gγ2 fused to the full-length mVenus at its N terminus (mVenus γ2) into HEK-293T cells (5×10^6 cells/plate) in 10-cm dishes using PEI (Polysciences Inc.; Warrington, PA) in a 1:1 ratio diluted in Opti-MEM (Life Technologies Corp.; Grand Island, NY) to assay for G protein activation as described previously (Rives, M.-L. et al. J. Biol. Chem. 2012, 287, 27050-4; Negri, A.; Rives, M.-L.; Caspers, M. J. et al. J. Chem. Inf. Model. 2013, 53, 521-526). Cells were maintained in the Dulbecco's Modified Eagle Medium (high glucose #11965; Life Technologies) supplemented with 10% FBS (Premium Select, Atlanta Biologicals; Atlanta, GA) and 100 U/mL penicillin and 100 μg/mL streptomycin (#15140, Life Technologies). After 24 hours the media was changed, and the experiment was performed 24 hours later (48 hours after transfection).
BRET. Transfected cells were dissociated and resuspended in phosphate-buffered saline (PBS). Approximately 200,000 cells/well were added to a black-framed, white well 96-well plate (#60050; Perkin Elmer; Waltham, MA). The microplate was centrifuged and the cells were resuspended in PBS. Then 5 μM of the luciferase substrate coelenterazine H was added to each well for 5 minutes. Following coelenterazine H addition, ligands were added and the BRET signal was measured at 5 minutes on a PHERAstar FS plate reader. Quantification of the BRET signal required calculating the ratio of the light emitted by the energy acceptor, mVenus (510-540 nm), over the light emitted by the energy donor, RLuc8 (485 nm). […] Dose response curves were fit using three-parameter logistics equation in GraphPad Prism 6.
A general note: BRET reads energy transfer from a luciferase to a nearby fluorophore.

pEC50: −log10 of the molar value.

Sequence of Human MOR (P35372 whole entry, the tested form may be a part): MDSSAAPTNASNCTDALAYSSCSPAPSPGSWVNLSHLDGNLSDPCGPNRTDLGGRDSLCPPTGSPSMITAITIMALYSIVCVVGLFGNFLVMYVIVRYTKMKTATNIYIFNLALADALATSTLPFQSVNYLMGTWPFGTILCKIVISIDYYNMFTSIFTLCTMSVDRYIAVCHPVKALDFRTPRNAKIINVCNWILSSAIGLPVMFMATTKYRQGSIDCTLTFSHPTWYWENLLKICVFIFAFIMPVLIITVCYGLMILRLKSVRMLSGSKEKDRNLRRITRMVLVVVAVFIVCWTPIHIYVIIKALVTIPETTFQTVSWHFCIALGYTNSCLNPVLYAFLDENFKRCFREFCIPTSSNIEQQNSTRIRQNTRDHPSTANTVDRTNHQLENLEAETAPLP

For the compound `CCOC(=O)CCCCCCNC1c2ccccc2S(=O)(=O)N(C)c2ccsc21` (stereo not shown) [compound 6, Ethyl 7-((4-methyl-5,5-dioxido-4,10-dihydrobenzo[f]thieno[3,2-c][1,2]thiazepin-10-yl)amino)heptanoate], the negative logarithm of the EC50 (pEC50) (as a rule, the negative decadic logarithm of the EC50, by convention in mol/L) is more than 5.00.
The value for `COCCCNC1c2ccccc2S(=O)(=O)N(C)c2ccsc21` (stereo not shown) [compound 7, 10-((3-Methoxypropyl)amino)-4-methyl-4,10-dihydrobenzo[f]thieno[3,2-c][1,2]thiazepine 5,5-dioxide] was more than 5.00; that for `COCCCNC1c2ccccc2N(C)S(=O)(=O)c2ccccc21` (stereo not shown) [compound 10, 11-((3-Methoxypropyl)amino)-6-methyl-6,11-dihydrodibenzo[c,f][1,2]thiazepine 5,5-dioxide] was more than 5.00.
The value for `COCCCNC1c2cc(Br)ccc2N(C)S(=O)(=O)c2cc(Cl)ccc21` (stereo not shown) [compound 11, 9-Bromo-3-chloro-11-((3-methoxypropyl)amino)-6-methyl-6,11-dihydrodibenzo[c,f][1,2]thiazepine 5,5-dioxide] was more than 5.00; that for `CC(=O)OCCCCCCNC1c2ccccc2N(C)S(=O)(=O)c2cc(Cl)ccc21` (stereo not shown) [compound 13, 6-((3-Chloro-6-methyl-5,5-dioxido-6,11-dihydrodibenzo[c,f][1,2]thiazepin-11-yl)amino)hexyl acetate] was more than 5.00; that for `COCCCNC1c2ccccc2N(C)S(=O)(=O)c2cc(C)ccc21` (stereo not shown) [compound 15, 11-((3-Methoxypropyl)amino)-3,6-dimethyl-6,11-dihydrodibenzo[c,f][1,2]thiazepine 5,5-dioxide] was more than 5.00.
In the case of `CCOC(CCCNC1c2ccccc2N(C)S(=O)(=O)c2cc(Cl)ccc21)OCC` (stereo not shown) [compound 24, 3-Chloro-11-((4,4-diethoxybutyl)amino)-6-methyl-6,11-dihydrodibenzo[c,f][1,2]thiazepine 5,5-dioxide], the pEC50 is more than 5.00.
The value for `CCCCCCCNC1c2ccccc2N(C)S(=O)(=O)c2cc(Cl)ccc21` (stereo not shown) [compound 26, 3-Chloro-11-(heptylamino)-6-methyl-6,11-dihydrodibenzo [c,f][1,2]thiazepine 5,5-dioxide] was more than 5.00; that for `COCCCNC1c2ccccc2N(C)S(=O)(=O)c2cc(OC)ccc21` (stereo not shown) [compound 27, 3-Methoxy-11-((3-methoxypropyl)amino)-6-methyl-6,11-dihydrodibenzo [c,f][1,2]thiazepine 5,5-dioxide] was more than 5.00; that for `COCCCNC1c2ccccc2N(C)S(=O)(=O)c2cc(Oc3ccccc3)ccc21` (stereo not shown) [compound 29, 11-((3-Methoxypropyl)amino)-6-methyl-3-phenoxy-6,11-dihydrodibenzo [c,f][1,2]thiazepine 5,5-dioxide] was more than 5.00.
With `CN1c2ccccc2C(NCCCC2OCCCO2)c2ccc(Cl)cc2S1(=O)=O` (stereo not shown) [compound 31, 11-((3-(1,3-Dioxan-2-yl)propyl)amino)-3-chloro-6-methyl-6,11-dihydrodibenzo[c,f][1,2]thiazepine 5,5-dioxide], the pEC50 is more than 5.00.
For the compound `CSCCCNC1c2ccccc2N(C)S(=O)(=O)c2cc(Cl)ccc21` (stereo not shown) [compound 33, 3-Chloro-6-methyl-11-((3-(methylthio)propyl)amino)-6,11-dihydrodibenzo[c,f][1,2]thiazepine 5,5-dioxide], the negative logarithm of the EC50 (pEC50) was more than 5.00.
The value for `CC(C)OCCCNC1c2ccccc2N(C)S(=O)(=O)c2cc(Cl)ccc21` (stereo not shown) [compound 35, 3-Chloro-11-((3-isopropoxypropyl)amino)-6-methyl-6,11-dihydrodibenzo [c,f][1,2]thiazepine 5,5-dioxide] was more than 5.00.
For `COCCOCCNC1c2ccccc2N(C)S(=O)(=O)c2cc(Cl)ccc21` (stereo not shown) [compound 36, 3-Chloro-11-((2-(2-methoxyethoxy)ethyl)amino)-6-methyl-6,11-dihydrodibenzo[c,f][1,2]thiazepine 5,5-dioxide], the pEC50 is more than 5.00.
As to `COCCCCNC1c2ccccc2N(C)S(=O)(=O)c2cc(Cl)ccc21` (stereo not shown) [compound 39, 3-Chloro-11-((4-methoxybutyl)amino)-6-methyl-6,11-dihydrodibenzo [c,f][1,2]thiazepine 5,5-dioxide], the pEC50 is more than 5.00.
The value for `COCCNC1c2ccccc2N(C)S(=O)(=O)c2cc(Cl)ccc21` (stereo not shown) [compound 42, 3-Chloro-11-((2-methoxyethyl)amino)-6-methyl-6,11-dihydrodibenzo [c,f][1,2]thiazepine 5,5-dioxide] was more than 5.00; that for `COCCCNC1c2ccccc2S(=O)(=O)N(C)c2c(Br)csc21` (stereo not shown) [compound 43, 3-Bromo-10-((3-methoxypropyl)amino)-4-methyl-4, 10-dihydrobenzo[f]thieno[3,2-c][1,2]thiazepine 5,5-dioxide] was more than 4.70.
For `CN1c2ccccc2C(NCC2CCOC2)c2ccc(Cl)cc2S1(=O)=O` (stereo not shown) [compound 46, 3-chloro-6-methyl-11-(((tetrahydrofuran-3-yl)methyl)amino)-6,11-dihydrodibenzo[c,f][1,2]thiazepine 5,5-dioxide], the negative-log EC50 (pEC50) was more than 5.00.
The value for `CN1CCCC1CCNC1c2ccccc2N(C)S(=O)(=O)c2cc(Cl)ccc21` (stereo not shown) [compound 47, 3-chloro-6-methyl-11-((2-(1-methylpyrrolidin-2-yl)ethyl)amino)-6,11-dihydrodibenzo[c,f][1,2]thiazepine 5,5-dioxide] was more than 4.70; that for `COCCCNC1c2ccccc2S(=O)(=O)N(C)c2c(OC)cccc21` (stereo not shown) [compound 50, 7-Methoxy-11-((3-methoxypropyl)amino)-6-methyl-6,11-dihydrodibenzo [c,f][1,2]thiazepine 5,5-dioxide] was more than 4.70.
As to `COCCCNC1c2ccccc2N(C)S(=O)(=O)c2cc([S+](C)[O-])ccc21` (stereo not shown) [compound 55, 11-((3-Methoxypropyl)amino)-6-methyl-3-(methylsulfinyl)-6,11-dihydrodibenzo[c,f][1,2]thiazepine 5,5-dioxide], the pEC50 is more than 4.70.
As to `COCCCNC1c2ccccc2N(C)S(=O)(=O)c2cc(-c3ccccc3)ccc21` (stereo not shown) [compound 56, 11-((3-Methoxypropyl)amino)-6-methyl-3-phenyl-6,11-dihydrodibenzo[c,f][1,2]thiazepine 5,5-dioxide], the negative-log EC50 (pEC50) is more than 5.00.
Take `CN1c2ccccc2C(NCCCCCCC(=O)NCCO)c2ccc(Cl)cc2S1(=O)=O` (stereo not shown) [compound 57, 7-((3-Chloro-6-methyl-5,5-dioxido-6,11-dihydrodibenzo [c,f][1,2]thiazepin-11-yl)amino)-N-(2-hydroxyethyl) heptanamide]: the negative logarithm of the EC50 (pEC50) is more than 5.00.
Take `CN1c2ccccc2C(NCCCCCCC2=NCCO2)c2ccc(Cl)cc2S1(=O)=O` (stereo not shown) [compound 58, 3-Chloro-11-((6-(4,5-dihydrooxazol-2-yl)hexyl)amino)-6-methyl-6,11-dihydrodibenzo[c,f][1,2]thiazepine 5,5-dioxide]: the pEC50 is more than 5.00.
Consider `COCCCNC1c2ccccc2N(C)S(=O)(=O)c2cc(OC(C)=O)ccc21` (stereo not shown) [compound 59, 11-((3-Methoxypropyl)amino)-6-methyl-5,5-dioxido-6,11-dihydrodibenzo[c,f][1,2]thiazepin-3-yl acetate], for which the pEC50 is more than 5.00.
The value for `COCCCNC1c2ccccc2N(C)S(=O)(=O)c2ccc(Cl)cc21` (stereo not shown) [compound 60, 2-Chloro-11-((3-methoxypropyl)amino)-6-methyl-6,11-dihydrodibenzo [c,f][1,2]thiazepine 5,5-dioxide] was more than 4.70; that for `COCCCNC1c2ccccc2N(C)S(=O)(=O)c2cc(SC(C)C)ccc21` (stereo not shown) [compound 63, 3-(Isopropylthio)-11-((3-methoxypropyl)amino)-6-methyl-6,11-dihydrodibenzo[c,f][1,2]thiazepine 5,5-dioxide] was more than 5.00; that for `CCSc1ccc2c(c1)S(=O)(=O)N(C)c1ccccc1C2NCCCOC` (stereo not shown) [compound 64, 3-(Ethylthio)-11-((3-methoxypropyl)amino)-6-methyl-6,11-dihydrodibenzo[c,f][1,2]thiazepine 5,5-dioxide] was more than 5.00.
For `CCN1c2ccccc2C(NCCCOC)c2ccccc2S1(=O)=O` (stereo not shown) [compound 65, 6-Ethyl-11-((3-methoxypropyl)amino)-6,11-dihydrodibenzo[c,f][1,2]thiazepine 5,5-dioxide], the negative-log EC50 (pEC50) was less than 4.70.
Take `COC(C)CCNC1c2ccccc2N(C)S(=O)(=O)c2cc(Cl)ccc21` (stereo not shown) [compound 67, 3-Chloro-11-((3-methoxybutyl)amino)-6-methyl-6,11-dihydrodibenzo [c,f][1,2]thiazepine 5,5-dioxide]: the negative logarithm of the EC50 (pEC50) is more than 5.00.
The value for `COCC(C)CNC1c2ccccc2N(C)S(=O)(=O)c2cc(Cl)ccc21` (stereo not shown) [compound 68, 3-Chloro-11-((3-methoxy-2-methylpropyl)amino)-6-methyl-6,11-dihydrodibenzo[c,f][1,2]thiazepine 5,5-dioxide] was more than 5.00.
